Laboratory results as given in patent US6506339B1, “Method of sterilization” (Biomedical Design, Inc., priority 1997, dated 2003).
Marks after values point to notes of the source that are not given here.

Experiments:
[1] = test system: Mycobacterium Chelonae ATCC 35752; experiment: Sterilization test, Mycobacterium chelonae in sterile cups at room temperature (Example 1); format: cell-based; details: EDC plus Sulfo-NHS, 20% isopropyl alcohol
Description: Porcine aortic roots are fixed by cross-linking according to the method described in U.S. Pat. No. 5,447,536. After fixation, the valves are stored in 10 mM HEPES, 0.85% NaCl, 20% isopropyl alcohol, pH 7.4, at 4° C. The sterility tests described in the following examples are in most cases conducted in the presence of bioprosthetic heart valve tissue; when such tissue is not present, the solutions are simply filtered through a 0.45 micron filter attached to a funnel (filter funnel). The filters are then rinsed with peptone water to eliminate residual chemicals on the membrane that may prevent growth of the organisms tested. Such membrane filters are then incubated on TSA plates at about 32° to 33° C., e.g. 32.5° C. When an aortic valve is inoculated with microorganisms for test purposes and then submitted to sterilization, the solution is filtered as described above. The aortic valve tissue is then washed for 20 minutes in a reciprocating shaker in the presence of peptone water containing Tween 80 in order to extract all indigenous spores or microorganisms from the tissue. This solution is filtered and then incubated as described above. […] Resistance to calcification is assessed by subdermal implantation of sterilized leaflets and aortic wall coupons in young rats, as also described in the '536 U.S. patent. […]

[2] = test system: Bacillus subtilis (niger) spores; experiment: Sterilization without isopropyl alcohol and sulfo-NHS, cups with or without porcine valve tissue (Example 4B); format: cell-based; details: 40° C., no isopropyl alcohol or sulfo-NHS
Description: An experiment similar to that of Example 2 is carried out using EDC as a coupling agent in the absence of isopropyl alcohol and sulfo-NHS. Bacillus subtilis (niger) spores at levels of about 10^6 are inoculated in sterile cups, some of which contain cross-linked porcine aortic valve tissue, for approximately 10 minutes. Solutions (50 ml) of 25, 50 and 70 mM EDC in 10 mM TRIS, 0.85% NaCl, pH 6.5, are prewarmed to 40° C., respectively added to the cups, and incubated at 40° C. for 1 to 3 days. The solutions are then diluted and filtered in order to collect microorganisms. The valve tissue is washed for 20 minutes in a reciprocating shaker in the presence of peptone water containing polyethylenesorbitan monooleate (Tween 80) in order to extract all spores of microorganisms from the tissue; the peptone water solution is added to the corresponding filter. Next, the filters are rinsed with a 0.1% peptone water solution to eliminate any residual EDC and incubated on TSA plates for 14 days. The plates are examined every day for growth, counting the colony forming units (CFUs).

[3] = test system: Chaetonium globosom ATCC 6205 spores; experiment: Sterilization in cups at about 38° C. (Example 6); format: cell-based, Chaetonium globosum; details: 25 mM EDC, 20% isopropanol, inoculum Log 10 ˜4.7
Description: In view of the foregoing verification, it was decided to test the effectiveness of the sterilization process against other bacteria using sterile cups. Added to each of the cups is 20 ml of 10 mM HEPES, 0.85%, Nacl, 20% isopropanol, pH 6.5, containing 25 mM EDC without any coupling enhancer, before the cups are placed in a incubator at about 38° C. When the solution temperature reached about 38° C., approximately 10^5-10^6 organisms were inoculated into the solution. The tests were carried out in triplicate. The following four isolated were tested in the form of sporous suspensions: Clostridium sporogenes ATCC 3584, Bacillus pumilus ATCC 27142, Chaetonium globosom ATCC 6205, and Microacus cinereus ATCC 16594. The following three isolates were tested as vegetative cells: Mycobacterium chelonae ATCC 35752, Methylbacterium extorquens ATCC 43645 and Trichosporon aquatile ATCC 22310. The inoculated systems were allowed to incubate for 1 hour, for 5 hours or for 24 hours, and the solutions were then filtered through a 0.45 micron filter. After rinsing, the filter was placed on a TSA plate as described in Example 1. Negative and positive controls indicate that the tests were valid. The results are set forth in Table D which follows wherein the number of CFUs in the inoculum is expressed as its log to the base 10, e.g. 3.4×10^5=5.5: […]

Question: How did the “sterilization treatment time that kills all Mycobacterium chelonae” value [1] turn out when `CCN=C=NCCCN(C)C.Cl` [EDC, 1-ethyl-3(3-dimethylaminopropyl)carbodiimide hydrochloride] was run?
Answer: Its value is no more than 12 h.

Question: What about the “time within which effective sterilization (inactivation of 1×10^6 spores) occurs” value ([2]; 25 mM EDC) of the same compound?
Answer: Its value is no more than 24 hours.

Question: What about the “time within which effective sterilization (inactivation of 1×10^6 spores) occurs” value ([2]; 50 mM EDC) of the same compound?
Answer: The value was no more than 24 hours.

Question: What about the “time within which effective sterilization (inactivation of 1×10^6 spores) occurs” value ([2]; 70 mM EDC) of the same compound?
Answer: Its value is no more than 24 hours.

Question: What about the “hours of incubation of plates after which no growth was observed” value ([3]; 5 Hours treatment) of the same compound?
Answer: The value was “(72 hrs.)*”.

Question: And the “hours of incubation of plates after which no growth was observed” value ([3]; 24 Hours treatment)?
Answer: Its value is “(96 hrs.)*”.
